Laboratory results as given in patent US20230330059A1, “3-PHENYL-2H-CHROMENE DERIVATIVE AND PHARMACEUTICAL COMPOSITION FOR PREVENTING OR TREATING ALZHEIMER'S, CONTAINING SAME” (NEUROBIONET, INC., priority 2020, published 2023).
pIC50: −log10 of the molar value. Read-outs that look alike come from different tables or passages of the source.

How the values were obtained:
[1] = tested on: nitric oxide production in LPS-treated BV2 cells; assay: Nitric oxide production (Griess) in LPS-treated BV2 cells; type: cell-based, mouse; conditions: for NO production: LPS-treated BV2 cells, FIG. 4 (lower), 8a; for pIC50: Mus musculus, read-out: IC50 (NO production)
Description: BV2 cells were seeded at a density of 4 x 10^5 cells/well into 96-well plates, and primary microglial cells isolated from the brain of […] ICR mice were seeded at a density of 4 x 10^5 cells/well into 24-well plates.
The culture media were collected and measured for NO production using a Griess reagent solution (1% sulfanilamide and 0.1% N-1-naphthyl ethylenediamine dihydrochloride in 5% phosphoric acid). Briefly, a total of 50 µL of the supernatant was transferred to new 96-well plates and mixed with the same volume of the Griess reagent solution, followed by measuring OD at 570 nm. In addition, the cell viability was assayed in the same manner as in Experimental Example 2.

LPS-treated BV2 cells = assay: Cell viability of LPS-treated BV2 cells; type: cell-based, mouse; conditions: FIG. 8b
Description: Mouse-derived microglia (BV2 cells) purchased from the Korean Cell Line Bank were seeded at a density of 4x10^5 cells/well into 96-well plates, each well containing DMEM (Dulbecco’s Modified Eagle’s Media) supplemented with 10% FBS and 1% antibiotics, and stabilized by incubation for 24 hours. Thereafter, the cells were treated for 24 hours with various concentrations (0.5, 1, and 5 µM) of daidzein, o-desmethylangolensin (O-DMA), S-equal, SPA1413, and SPA1426. After removal of the medium, the cells were treated 0.5 mg/ml 3-(4,5-dimethylthiazol-2-yl)-2,5-diphenyltetrazolium bromide (MTT) solution 1 hour. The reduced formazan was dissolved in 150 µl of dimethyl sulfoxide (DMSO) and absorbance was read at 570 nm in a microspectrophotometer to determine cell viability. Cell viability of the cells treated with each sample was determined relative to that of the untreated normal control (Control), which was set to be 100%, and the results are depicted in FIGS. 3 and 4 (upper).
After stabilization for 24 hours, the cells were treated with various concentrations (1 and 5 µM) of daidzein, o-desmethylangolensin, S-equal, SPA1413, and SPA1426 for 30 minutes and then with LPS (100 ng/ml) for 24 hours at 37° C. […]

JNK = JNK protein expression (western blot) in LPS-treated BV2 cells; type: cell-based, mouse; conditions: 5 µM, compared to the LPS-treated group, FIG. 12a
Description: (§1) BV2 cells were aliquoted at a density of 1x10^6 cells/well into 60 mm dishes and stabilized for 24 hours. Thereafter, the cells were treated with 5 µM of S-equal, SPA1413, or SPA1426 for 30 minutes and then with LPS (100 ng/ml) for 24 hours at 37° C. After being cultured to reach 100% confluence, the cells were washed with PBS and lysed with a lysis buffer (PRO-PREP™ Protein Extraction Solution, Intron Biotechnology, Seongnam, Korea). With bovine serum albumin (BSA) serving as a standard, the protein contents of the lysate supernatants were measured by Bio-Rad Protein Assay (Bio-Rad, California, USA) to determine the total protein content in each sample. Afterwards, each of the samples was loaded in a protein amount of 30 µg on a 10-12% SDS-PAGE gel and run for electrophoresis. The electrophorized proteins were transferred to a PVDF membrane which was then blocked with 5% skim milk and incubated with antibodies to JNK or p38 (Cell Signaling Technologies, Massachusetts, USA). Detection was conducted with a ChemiDoc XRS+ imaging system (Bio-Rad, CA, USA).

N2a cells = assay: Neurite outgrowth in N2a cells (Incucyte); type: cell-based, mouse; conditions: 5 µM, FIGS. 14a and 14b
Description: N2a cells were aliquoted at a density of 1x10^4 cells/well into 24-well plates, treated with daidzein, o-desmethylangolensin, S-equal, SPA1413 and SPA1426 at 5 µM, and evaluated for neurite outgrowth by the real-time cell monitoring system InCucyte. The cells were photographed every 2 hours, and the neurites were counted through Incucyte software.

IL-6 = IL-6 production (ELISA) in LPS-treated BV2 cells; type: cell-based, mouse; conditions: 5 µM, LPS (100 ng/ml) 24 hours, FIG. 10a
Description: BV2 cells were seeded at a density of 4x10^5 cells/well into 96-well plates and stabilized for 24 hours. Thereafter, the cells were treated with 5 µM of daidzein, o-desmethylangolensin, S-equal, SPA1413, or SPA1426 for 30 minutes and then with LPS (100 ng/ml) for 24 hours at 37° C. The culture medium was collected and quantitatively measured for IL-6 and TNF-a released to the BV2 culture supernatant, using the enzyme immunoassay method […] Enzyme-Linked Immuno Assay (ELISA) kit (R&D systems, Minneapolis, MN, USA). The IL-6 and TNF-a releases from the groups treated with the samples were evaluated relative to that from the LPS-treated group, which was set to be 100%, and the results are depicted in FIGS. 10a and 10b.

[2] = tested on: LPS-treated primary microglia; assay: Cell viability of LPS-treated primary microglia; type: cell-based, ICR mice; conditions: FIG. 9b
MGO-AGEs = MGO-AGEs (Bos taurus, UniProt P02769); assay: Breaking of MGO-induced advanced glycation end products (TNBSA free amine); type: biochemical
Chain of MGO-AGEs (P02769 25-607): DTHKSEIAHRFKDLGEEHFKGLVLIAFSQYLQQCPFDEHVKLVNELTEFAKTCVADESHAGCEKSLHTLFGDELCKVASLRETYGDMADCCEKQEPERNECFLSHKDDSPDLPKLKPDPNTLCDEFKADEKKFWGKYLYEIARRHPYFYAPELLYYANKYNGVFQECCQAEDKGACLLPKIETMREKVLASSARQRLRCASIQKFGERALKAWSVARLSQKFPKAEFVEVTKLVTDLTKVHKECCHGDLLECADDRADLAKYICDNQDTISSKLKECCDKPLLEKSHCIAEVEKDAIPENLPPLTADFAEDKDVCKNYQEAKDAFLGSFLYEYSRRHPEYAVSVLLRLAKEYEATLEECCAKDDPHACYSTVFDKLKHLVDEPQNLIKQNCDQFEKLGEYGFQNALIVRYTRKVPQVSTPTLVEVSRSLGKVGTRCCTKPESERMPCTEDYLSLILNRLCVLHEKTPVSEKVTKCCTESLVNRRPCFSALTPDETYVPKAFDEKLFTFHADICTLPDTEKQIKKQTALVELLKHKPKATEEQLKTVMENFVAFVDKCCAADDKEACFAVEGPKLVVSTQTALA
Description: Bovine serum albumin (BSA) was stored at 37° C. for 7 days in mixture with methylglyoxal (MGO) and sodium azide) to prepare AGEs. The AGEs derived from MGO are referred to as “MGO-AGEs”. MGO-AGEs with a concentration of 1 mg/ml were treated for 24 hours with various concentrations (0.1, 0.2, and 0.4 mM) of SPA1413. As a positive control, aminoguanidine (AG), known as an AGE inhibitor, was used. MGO-AGEs were reacted with 2,4,6-trinitrobenzene sulfonic acid (TNBSA) and 4% sodium bicarbonate, followed by adding 10% sodium dodecyl sulfate and 1 N HCl to terminate the reaction. Absorbance was read at 335 nm accounting for free amines, which resulted from the breaking degradation of AGEs, in a microplate to evaluate the efficacy of degrading AGEs.

p38 = p38 protein expression (western blot) in LPS-treated BV2 cells; type: cell-based, mouse; conditions: 5 µM, compared to the LPS-treated group, FIG. 12b
Description: as §1

SMILES: Oc1ccc(C2=Cc3ccc(O)cc3OC2)cc1 [SPA1413, 3-(4-Hydroxyphenyl)-2H-chromen-7-ol]
- NO production [1]: decreased NO production in dose-dependent manners
- pIC50 ([1]; BV-2, 24 h): 5.28
- cell viability compared to the group treated with LPS (LPS-treated BV2 cells): increased
- expression level of JNK protein (JNK): decreased
- neurite outgrowth (N2a cells): significantly increased
- IL-6 production (IL-6): significantly decreased
- cell viability compared to the group treated with LPS [2]: increased
- free amines from breaking of MGO-AGEs, compared to the negative control (MGO-AGEs) (MGO-AGEs; 0.1, 0.2 and 0.4 mM, 24 hours, MGO-AGEs 1 mg/ml, FIG. 18): increased levels of free amines
- expression level of P38 protein (p38): decreased

SMILES: CCCC(=O)Oc1ccc(C2=Cc3ccc(OC(=O)CCC)cc3OC2)cc1 [SPA1426, 4-(7-(butyryloxy)-2H-chromen-3-yl)phenyl butyrate]
- NO production [1]: decreased NO production in dose-dependent manners
- pIC50 ([1]; BV-2, LPS (100 ng/ml) 24 hours, Griess reagent, cell type not stated in Table 1): 5.44
- cell viability compared to the group treated with LPS (LPS-treated BV2 cells): increased
- expression level of JNK protein (JNK): decreased
- neurite outgrowth (N2a cells): significantly increased
- IL-6 production (IL-6): significantly decreased
- cell viability compared to the group treated with LPS [2]: increased
- free amines from breaking of MGO-AGEs, compared to SPA1413 (MGO-AGEs; FIG. 19): higher levels of free amines
- expression level of P38 protein (p38): decreased
